{"source": "paper doi:10.1101/2023.11.24.568596v1", "about": "(biorxiv, 2023)", "details_in_all_cases": "binder", "key": {"MAP2K7": {"target": "T1, MAP2K7 (Homo sapiens, UniProt O14733)", "T1 sequence (O14733 1-419)": "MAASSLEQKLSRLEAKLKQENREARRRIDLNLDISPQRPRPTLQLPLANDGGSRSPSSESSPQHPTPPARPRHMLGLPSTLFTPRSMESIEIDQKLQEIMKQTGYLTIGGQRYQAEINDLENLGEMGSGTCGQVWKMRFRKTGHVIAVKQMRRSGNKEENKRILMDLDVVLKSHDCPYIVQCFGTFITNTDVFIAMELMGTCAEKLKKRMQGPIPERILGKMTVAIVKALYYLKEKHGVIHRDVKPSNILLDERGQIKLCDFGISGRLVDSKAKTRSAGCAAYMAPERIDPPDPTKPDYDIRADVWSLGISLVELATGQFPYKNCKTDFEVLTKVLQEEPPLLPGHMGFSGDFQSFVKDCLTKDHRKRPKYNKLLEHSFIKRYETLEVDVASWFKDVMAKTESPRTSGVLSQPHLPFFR"}, "CK1e": {"target": "CK1e (Homo sapiens, UniProt P49674)", "sequence (P49674 whole entry)": "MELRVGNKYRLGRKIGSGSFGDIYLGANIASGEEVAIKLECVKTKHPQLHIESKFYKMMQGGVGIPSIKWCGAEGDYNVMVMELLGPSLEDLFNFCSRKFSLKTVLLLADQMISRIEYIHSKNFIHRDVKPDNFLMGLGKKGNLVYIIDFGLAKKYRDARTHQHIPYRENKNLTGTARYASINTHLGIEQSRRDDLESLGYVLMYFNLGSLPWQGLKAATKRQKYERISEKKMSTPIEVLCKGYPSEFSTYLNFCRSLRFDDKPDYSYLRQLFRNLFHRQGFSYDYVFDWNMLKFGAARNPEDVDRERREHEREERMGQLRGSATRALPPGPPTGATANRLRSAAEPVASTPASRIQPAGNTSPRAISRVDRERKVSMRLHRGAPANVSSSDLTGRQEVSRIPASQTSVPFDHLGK"}, "MSSK1": {"target": "MSSK1 (Homo sapiens, UniProt Q9UPE1)", "sequence (Q9UPE1 whole entry)": "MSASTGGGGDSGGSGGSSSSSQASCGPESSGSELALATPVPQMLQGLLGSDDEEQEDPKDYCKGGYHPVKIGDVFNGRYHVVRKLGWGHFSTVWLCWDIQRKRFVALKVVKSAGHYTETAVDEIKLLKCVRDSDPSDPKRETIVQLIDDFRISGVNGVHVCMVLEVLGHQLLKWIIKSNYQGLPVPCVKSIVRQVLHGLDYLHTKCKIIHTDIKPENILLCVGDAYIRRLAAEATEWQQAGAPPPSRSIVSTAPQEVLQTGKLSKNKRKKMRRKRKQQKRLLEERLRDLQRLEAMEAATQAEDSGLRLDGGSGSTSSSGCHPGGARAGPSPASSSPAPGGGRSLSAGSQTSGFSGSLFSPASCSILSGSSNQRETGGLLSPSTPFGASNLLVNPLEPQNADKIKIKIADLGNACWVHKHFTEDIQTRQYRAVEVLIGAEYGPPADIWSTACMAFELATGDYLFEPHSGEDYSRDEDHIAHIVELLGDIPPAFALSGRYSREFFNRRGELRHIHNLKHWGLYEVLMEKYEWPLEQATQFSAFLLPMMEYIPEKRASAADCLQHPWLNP"}, "MST1": {"target": "T2, MST1 (Homo sapiens, UniProt Q13043)", "T2 sequence (Q13043 1-487)": "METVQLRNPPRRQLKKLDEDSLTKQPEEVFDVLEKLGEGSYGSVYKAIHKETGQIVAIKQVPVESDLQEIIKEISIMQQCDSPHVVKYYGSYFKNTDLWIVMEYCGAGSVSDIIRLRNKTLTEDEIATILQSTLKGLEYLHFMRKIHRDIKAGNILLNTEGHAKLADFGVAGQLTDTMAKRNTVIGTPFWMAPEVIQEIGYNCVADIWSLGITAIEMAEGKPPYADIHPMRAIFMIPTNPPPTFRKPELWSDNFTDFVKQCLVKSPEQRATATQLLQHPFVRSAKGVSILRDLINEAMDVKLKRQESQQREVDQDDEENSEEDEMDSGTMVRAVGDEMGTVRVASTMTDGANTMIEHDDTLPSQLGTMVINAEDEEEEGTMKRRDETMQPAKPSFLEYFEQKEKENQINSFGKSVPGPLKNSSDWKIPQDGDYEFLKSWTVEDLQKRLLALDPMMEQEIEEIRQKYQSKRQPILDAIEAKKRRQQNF"}, "MST3": {"target": "MST3 (Homo sapiens, UniProt Q9Y6E0)", "sequence (Q9Y6E0 whole entry)": "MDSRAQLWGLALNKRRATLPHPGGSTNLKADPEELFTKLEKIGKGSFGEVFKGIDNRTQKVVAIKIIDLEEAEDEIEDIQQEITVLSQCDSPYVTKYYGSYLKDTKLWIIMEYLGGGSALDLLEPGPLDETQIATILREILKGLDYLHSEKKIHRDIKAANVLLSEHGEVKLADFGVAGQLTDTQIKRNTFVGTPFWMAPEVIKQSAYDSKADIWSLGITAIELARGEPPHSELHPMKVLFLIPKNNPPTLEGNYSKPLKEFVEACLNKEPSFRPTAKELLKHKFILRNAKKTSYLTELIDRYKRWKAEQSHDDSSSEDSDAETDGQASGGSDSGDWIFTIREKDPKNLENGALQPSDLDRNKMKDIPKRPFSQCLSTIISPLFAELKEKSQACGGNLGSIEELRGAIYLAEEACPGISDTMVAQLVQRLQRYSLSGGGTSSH"}, "MST4": {"target": "MST4 (Homo sapiens, UniProt Q9P289)", "sequence (Q9P289 whole entry)": "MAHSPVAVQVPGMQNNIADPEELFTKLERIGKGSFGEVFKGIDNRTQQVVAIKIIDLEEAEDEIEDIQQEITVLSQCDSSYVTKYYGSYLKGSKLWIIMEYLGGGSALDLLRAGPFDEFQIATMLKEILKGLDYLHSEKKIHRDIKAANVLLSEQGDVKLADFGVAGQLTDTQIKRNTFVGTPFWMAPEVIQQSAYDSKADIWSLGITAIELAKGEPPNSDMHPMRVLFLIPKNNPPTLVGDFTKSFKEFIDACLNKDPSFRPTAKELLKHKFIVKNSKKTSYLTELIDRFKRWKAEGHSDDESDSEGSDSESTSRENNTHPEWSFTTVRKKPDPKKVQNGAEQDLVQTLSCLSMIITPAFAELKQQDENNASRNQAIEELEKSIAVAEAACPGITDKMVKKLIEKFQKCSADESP"}, "PAK1": {"target": "PAK1 (Homo sapiens, UniProt Q13153)", "sequence (Q13153 whole entry)": "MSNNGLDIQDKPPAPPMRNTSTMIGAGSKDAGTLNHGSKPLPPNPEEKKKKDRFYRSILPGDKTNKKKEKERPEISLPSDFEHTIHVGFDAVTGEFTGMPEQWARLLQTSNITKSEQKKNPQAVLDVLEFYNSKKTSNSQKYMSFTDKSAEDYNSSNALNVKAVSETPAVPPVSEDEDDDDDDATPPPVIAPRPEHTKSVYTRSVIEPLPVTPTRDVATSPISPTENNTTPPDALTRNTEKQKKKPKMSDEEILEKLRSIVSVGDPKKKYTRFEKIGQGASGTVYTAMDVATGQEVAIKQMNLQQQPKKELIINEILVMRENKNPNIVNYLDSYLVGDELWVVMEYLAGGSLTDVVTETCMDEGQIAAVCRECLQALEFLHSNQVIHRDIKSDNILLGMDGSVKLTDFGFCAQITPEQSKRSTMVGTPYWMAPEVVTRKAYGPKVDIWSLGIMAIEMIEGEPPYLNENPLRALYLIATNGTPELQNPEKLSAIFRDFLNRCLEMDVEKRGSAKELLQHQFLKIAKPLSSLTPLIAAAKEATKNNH"}, "MST2": {"target": "T3, MST2 (Homo sapiens, UniProt Q13188)", "T3 sequence (Q13188 1-491)": "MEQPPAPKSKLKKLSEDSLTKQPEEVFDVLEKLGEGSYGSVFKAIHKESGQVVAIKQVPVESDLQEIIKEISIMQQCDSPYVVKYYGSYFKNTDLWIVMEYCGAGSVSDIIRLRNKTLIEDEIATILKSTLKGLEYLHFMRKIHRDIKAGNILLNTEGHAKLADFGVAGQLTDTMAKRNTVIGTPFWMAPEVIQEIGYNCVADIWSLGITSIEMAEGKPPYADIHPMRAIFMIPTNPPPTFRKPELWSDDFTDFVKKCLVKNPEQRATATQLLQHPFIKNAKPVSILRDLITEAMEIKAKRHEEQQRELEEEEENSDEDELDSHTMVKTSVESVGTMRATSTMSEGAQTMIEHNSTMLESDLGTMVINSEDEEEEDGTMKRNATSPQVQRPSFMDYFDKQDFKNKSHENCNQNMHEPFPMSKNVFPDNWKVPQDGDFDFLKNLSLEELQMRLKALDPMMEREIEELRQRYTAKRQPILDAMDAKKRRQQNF"}, "SRC": {"target": "SRC (Homo sapiens, UniProt P12931)", "sequence (P12931 whole entry)": "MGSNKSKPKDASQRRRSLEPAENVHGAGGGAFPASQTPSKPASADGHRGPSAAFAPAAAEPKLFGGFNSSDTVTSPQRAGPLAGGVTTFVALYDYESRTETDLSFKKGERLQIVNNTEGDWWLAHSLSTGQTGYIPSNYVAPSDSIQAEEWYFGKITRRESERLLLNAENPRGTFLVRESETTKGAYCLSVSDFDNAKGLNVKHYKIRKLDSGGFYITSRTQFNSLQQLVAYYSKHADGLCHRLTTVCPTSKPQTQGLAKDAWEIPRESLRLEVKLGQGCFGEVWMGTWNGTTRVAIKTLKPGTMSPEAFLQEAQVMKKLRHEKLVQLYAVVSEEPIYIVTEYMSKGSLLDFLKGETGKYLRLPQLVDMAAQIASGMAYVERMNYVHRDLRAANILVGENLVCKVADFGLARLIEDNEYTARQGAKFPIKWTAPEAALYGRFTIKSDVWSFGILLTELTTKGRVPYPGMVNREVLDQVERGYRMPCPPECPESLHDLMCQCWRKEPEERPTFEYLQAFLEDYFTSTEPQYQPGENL"}, "BMX": {"target": "T4, BMX (Homo sapiens, UniProt P51813)", "T4 sequence (P51813 1-675)": "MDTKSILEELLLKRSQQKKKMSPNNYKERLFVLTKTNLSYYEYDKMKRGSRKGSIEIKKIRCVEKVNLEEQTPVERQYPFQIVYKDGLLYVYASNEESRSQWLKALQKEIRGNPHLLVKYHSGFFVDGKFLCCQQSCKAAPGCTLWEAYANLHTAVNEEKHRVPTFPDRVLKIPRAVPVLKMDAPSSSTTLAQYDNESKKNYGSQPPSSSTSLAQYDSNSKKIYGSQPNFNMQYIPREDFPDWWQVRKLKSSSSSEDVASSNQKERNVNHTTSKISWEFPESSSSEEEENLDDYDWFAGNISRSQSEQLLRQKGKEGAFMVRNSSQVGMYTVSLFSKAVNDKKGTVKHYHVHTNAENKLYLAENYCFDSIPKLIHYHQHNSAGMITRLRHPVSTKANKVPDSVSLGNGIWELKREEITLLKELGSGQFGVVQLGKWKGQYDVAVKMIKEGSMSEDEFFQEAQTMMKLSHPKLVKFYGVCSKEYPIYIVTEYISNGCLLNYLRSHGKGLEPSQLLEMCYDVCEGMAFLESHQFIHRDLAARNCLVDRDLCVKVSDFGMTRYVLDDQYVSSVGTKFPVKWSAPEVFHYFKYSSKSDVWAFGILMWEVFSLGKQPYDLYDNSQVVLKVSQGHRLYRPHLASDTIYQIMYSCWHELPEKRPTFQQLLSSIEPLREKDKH"}, "GSK3B": {"target": "GSK3B (Homo sapiens, UniProt P49841)", "sequence (P49841 whole entry)": "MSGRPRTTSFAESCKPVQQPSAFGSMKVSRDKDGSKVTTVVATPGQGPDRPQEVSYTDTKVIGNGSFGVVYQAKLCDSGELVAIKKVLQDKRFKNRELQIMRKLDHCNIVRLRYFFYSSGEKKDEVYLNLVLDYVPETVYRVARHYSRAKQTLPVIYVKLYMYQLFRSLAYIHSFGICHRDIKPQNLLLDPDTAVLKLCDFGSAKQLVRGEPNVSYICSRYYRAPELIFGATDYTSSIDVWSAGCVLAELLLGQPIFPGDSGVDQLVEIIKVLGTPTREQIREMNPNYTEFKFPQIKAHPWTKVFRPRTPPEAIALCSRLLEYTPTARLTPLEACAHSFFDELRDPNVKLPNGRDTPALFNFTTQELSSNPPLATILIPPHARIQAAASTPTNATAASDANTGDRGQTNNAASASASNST"}}}
{"smiles": "Cc1cccc(-c2ccc(-c3cc4cnc(NC(CO)CO)nc4n(CCCCN)c3=O)c(Cl)c2)n1", "note": "[compound 24, 8-(4-Aminobutyl)-6-(2-chloro-4-(6-methylpyridin-2-yl)phenyl)-2-((1,3-dihydroxypropan-2-yl)amino)pyrido[2,3-d]pyrimidin-7(8H)-one]", "values": [{"measurement": "ΔTm MR24 (24)", "setting": "MAP2K7", "result": 3.0, "unit": "°C"}, {"measurement": "ΔTm MR24 (24)", "setting": "CK1e", "result": 6.4, "unit": "°C"}, {"measurement": "ΔTm MR24 (24)", "setting": "MSSK1", "result": -0.2, "unit": "°C"}]}
{"smiles": "Cc1cccc(-c2ccc(-c3cc4cnc(NCCCc5ccc(N)cc5)nc4n(CCCCN)c3=O)c(Cl)c2)n1", "note": "[compound 25, 8-(4-Aminobutyl)-2-((3-(4-aminophenyl)propyl)amino)-6-(2-chloro-4-(6-methylpyridin-2-yl)phenyl)pyrido[2,3-d]pyrimidin-7(8H)-one]", "values": [{"measurement": "ΔTm 25", "setting": "MAP2K7", "result": 6.7, "unit": "°C"}, {"measurement": "ΔTm 25", "setting": "CK1e", "result": 8.0, "unit": "°C"}, {"measurement": "ΔTm 25", "setting": "MSSK1", "result": -0.4, "unit": "°C"}]}
{"smiles": "CNc1ncc2cc(-c3ccc(-c4cccc(C)n4)cc3Cl)c(=O)n(CCC3CCNCC3)c2n1", "note": "[compound 22, 6-(2-Chloro-4-(6-methylpyridin-2-yl)phenyl)-2-(methylamino)-8-(2-(piperidin-4-yl)ethyl)pyrido[2,3-d]pyrimidin-7(8H)-one]", "values": [{"measurement": "dTm MST1", "setting": "MST1", "result": 6.0, "unit": "°C"}, {"measurement": "dTm MST3", "setting": "MST3", "result": 10.5, "unit": "°C"}, {"measurement": "dTm MST4", "setting": "MST4", "result": 7.8, "unit": "°C"}, {"measurement": "dTm PAK1", "setting": "PAK1", "result": 8.6, "unit": "°C"}, {"measurement": "ΔTm 22", "setting": "MAP2K7", "result": 4.3, "unit": "°C"}, {"measurement": "ΔTm 22", "setting": "CK1e", "result": 6.8, "unit": "°C"}, {"measurement": "ΔTm 22", "setting": "MSSK1", "result": -0.1, "unit": "°C"}, {"measurement": "dTm MST2", "setting": "MST2", "result": 8.0, "unit": "°C"}]}
{"smiles": "COc1cc(N2CCN(C)CC2)ccc1Nc1ncc2cc(-c3ccc(-c4cccc(C)n4)cc3Cl)c(=O)n(CCCCN)c2n1", "note": "[compound 36, 8-(4-Aminobutyl)-6-(2-chloro-4-(6-methylpyridin-2-yl)phenyl)-2-((2-methoxy-4-(4-methylpiperazin-1-yl)phenyl)amino)pyrido[2,3-d]pyrimidin-7(8H)-one]", "values": [{"measurement": "dTm 36", "setting": "SRC", "result": 4.1, "unit": "°C"}, {"measurement": "dTm 36", "setting": "BMX", "result": 3.3, "unit": "°C"}, {"measurement": "dTm 36", "setting": "GSK3B", "result": 0.2, "unit": "°C"}]}
{"smiles": "COc1cc(N2CCOCC2)ccc1Nc1ncc2cc(-c3ccc(-c4cccc(C)n4)cc3Cl)c(=O)n(CCCCN)c2n1", "note": "[compound 35, 8-(4-Aminobutyl)-6-(2-chloro-4-(6-methylpyridin-2-yl)phenyl)-2-((2-methoxy-4-morpholino-phenyl)amino)pyrido[2,3-d]pyrimidin-7(8H)-one]", "values": [{"measurement": "dTm 35", "setting": "SRC", "result": 4.4, "unit": "°C"}, {"measurement": "dTm 35", "setting": "BMX", "result": 4.4, "unit": "°C"}, {"measurement": "dTm 35", "setting": "GSK3B", "result": -0.3, "unit": "°C"}]}
{"smiles": "Cc1cccc(-c2ccc(-c3cc4cnc(Nc5ccc(F)c(CO)c5)nc4n(CCCCN)c3=O)c(Cl)c2)n1", "note": "[compound 33, 8-(4-Aminobutyl)-6-(2-chloro-4-(6-methylpyridin-2-yl)phenyl)-2-((4-fluoro-3-(hydroxymethyl)phenyl)amino)pyrido[2,3-d]pyrimidin-7(8H)-one]", "values": [{"measurement": "dTm 33", "setting": "SRC", "result": 4.7, "unit": "°C"}, {"measurement": "dTm 33", "setting": "BMX", "result": 7.1, "unit": "°C"}, {"measurement": "dTm 33", "setting": "GSK3B", "result": 2.3, "unit": "°C"}]}
{"smiles": "CNc1ncc2cc(-c3ccc(-c4cccc(C)n4)cc3Cl)c(=O)n(CCCCN)c2n1", "note": "[compound 20, MRLW5]", "values": [{"measurement": "dTm MST1", "setting": "MST1", "result": 5.6, "unit": "°C"}, {"measurement": "dTm MST3", "setting": "MST3", "result": 11.7, "unit": "°C"}, {"measurement": "dTm MST4", "setting": "MST4", "result": 11.4, "unit": "°C"}, {"measurement": "dTm PAK1", "setting": "PAK1", "result": 6.5, "unit": "°C"}, {"measurement": "dTm MST2", "setting": "MST2", "result": 7.9, "unit": "°C"}]}
{"smiles": "Cc1cccc(-c2ccc(-c3cc4cnc(NCCCN5CCOCC5)nc4n(CCCCN)c3=O)c(Cl)c2)n1", "note": "[compound 26, MR26]", "values": [{"measurement": "ΔTm MR26 (26)", "setting": "MAP2K7", "result": 3.1, "unit": "°C"}, {"measurement": "ΔTm MR26 (26)", "setting": "CK1e", "result": 7.3, "unit": "°C"}, {"measurement": "ΔTm MR26 (26)", "setting": "MSSK1", "result": -0.3, "unit": "°C"}]}
{"smiles": "CNc1ncc2cc(-c3ccc(-c4cccc(C)n4)cc3Cl)c(=O)n(C[C@H]3CC[C@H](N)CC3)c2n1", "note": "[compound 23, 23]", "values": [{"measurement": "dTm MST1", "setting": "MST1", "result": 7.9, "unit": "°C"}, {"measurement": "dTm MST3", "setting": "MST3", "result": 10.8, "unit": "°C"}, {"measurement": "dTm MST4", "setting": "MST4", "result": 8.2, "unit": "°C"}, {"measurement": "dTm PAK1", "setting": "PAK1", "result": 8.4, "unit": "°C"}, {"measurement": "ΔTm 23", "setting": "MAP2K7", "result": 7.1, "unit": "°C"}, {"measurement": "dTm MST2", "setting": "MST2", "result": 10.8, "unit": "°C"}]}
{"smiles": "COc1ccc(O)c(Nc2ncc3cc(-c4ccc(-c5cccc(C)n5)cc4Cl)c(=O)n(CCCCN)c3n2)c1", "note": "[compound 34, 8-(4-Aminobutyl)-6-(2-chloro-4-(6-methylpyridin-2-yl)phenyl)-2-((2-hydroxy-5-methoxy-phenyl)amino)pyrido[2,3-d]pyrimidin-7(8H)-one]", "values": [{"measurement": "dTm 34", "setting": "SRC", "result": 3.1, "unit": "°C"}, {"measurement": "dTm 34", "setting": "BMX", "result": 4.1, "unit": "°C"}, {"measurement": "dTm 34", "setting": "GSK3B", "result": 2.0, "unit": "°C"}]}
